Reference: patent US20040024024A1, “Aromatic sulfone hydroxamates and their use as protease inhibitors” (priority 2001, published 2004)

Columns and labels:
Human recombinant MMP-2 = target: T1, Human recombinant MMP-2 (Homo sapiens, UniProt P08253); assay: In vitro MMP inhibition, IC50 determination (fluorogenic substrate I); format: biochemical
T1 construct: made in house; host or cells: MMP-2-transfected p2AHT2 cells
T1 sequence (P08253 110-660): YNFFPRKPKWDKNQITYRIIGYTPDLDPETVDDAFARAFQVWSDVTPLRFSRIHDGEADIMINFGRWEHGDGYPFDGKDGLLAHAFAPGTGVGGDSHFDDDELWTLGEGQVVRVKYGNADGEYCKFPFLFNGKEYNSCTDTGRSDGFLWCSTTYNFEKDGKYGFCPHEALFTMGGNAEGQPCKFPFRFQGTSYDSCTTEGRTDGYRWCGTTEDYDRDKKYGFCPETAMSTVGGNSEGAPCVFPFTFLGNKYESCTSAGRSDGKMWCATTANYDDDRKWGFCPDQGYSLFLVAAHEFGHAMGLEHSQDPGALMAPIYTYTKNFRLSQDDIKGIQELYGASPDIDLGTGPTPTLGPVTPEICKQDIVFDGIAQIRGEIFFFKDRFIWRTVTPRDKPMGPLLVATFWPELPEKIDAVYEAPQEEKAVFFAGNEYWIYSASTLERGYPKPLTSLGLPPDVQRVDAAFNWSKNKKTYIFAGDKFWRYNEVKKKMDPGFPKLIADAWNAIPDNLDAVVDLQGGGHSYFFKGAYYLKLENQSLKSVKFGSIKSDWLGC
Method: (§1) Several hydroxamates and salts thereof were analyzed in in vitro assays to determine their ability to inhibit the MMP cleavage of peptide substrates. Inhibition (Ki) and IC50 constants were calculated from the assayed hydroxamate-MMP interactions.
(§2) Human recombinant MMP-1, MMP-2, MMP-9, MMP-13, and MMP-14 were used in this assay. All enzymes were prepared in Assignee's laboratories following usual laboratory procedures. Protocols for the preparation and use of these enzymes are available in the scientific literature. See, e.g., Enzyme Nomenclature (Academic Press, San Diego, Calif., 1992) (and the citations therein). See also, Frije et al., J. Biol. Chem., 26(24), 16766-73 (1994).
The MMP-2 proenzyme was purified by gelatin Sepharose chromatography from MMP-2-transfected p2AHT2 cells provided by Dr. Gregory Goldberg of Washington University (St. Louis, Mo.).
(§3) All MMPs were activated using 4-aminophenylmercuric acetate (“APMA”, Sigma Chemical, St. Louis, Mo.) or trypsin. MMP-9 also was activated using human recombinant MMP-3 (purified in Assignee's laboratory following standard cloning and purification techniques).
(§4) Two fluorogenic, methoxycoumarin-containing polypeptide substrates were used in the MMP inhibition assays:
(§5) MCA-ProLeuGlyLeuDpaAlaArgNH2 (I)
(§6) Here, “Dpa” is 3-(2,4-dinitrophenyl)-L-2,3-diaminopropionyl group, and “MCA” is 7-methoxycoumarin-4-yl acetyl. Substrate (I) was purchased from Baychem (Redwood City, Calif.), and substrate II was prepared Assignee's laboratory. Substrate I was used in the IC50 determination assays, while substrate II was used in the Ki determination assays. In the absence of MMP inhibitory activity, either substrate is cleaved at the Gly-Leu peptide bond. This cleavage separates the highly fluorogenic peptide from the 2,4-dinitrophenyl quencher, thus resulting in increase of fluorescent intensity.
(§7) The stock solutions of the assayed hydroxamates (or salts thereof) were prepared in 1% dimethyl sulfoxide (DMSO). These stock solutions were diluted in Buffer A (100 mM Tris-HCl, 100 mM NaCl, 10 mM CaCl2, 0.05% polyoxyethylene 23 lauryl ether, pH 7.5) to obtain solutions with different hydroxamate concentrations, i.e., assay solutions with different concentrations of the assayed MMP inhibitory compound. The experiment controls contained the same amount of Buffer A/DMSO as the assayed sample, but contained no hydroxamate (or salt thereof).
(§8) The assays from which the IC50 determinations were made were performed as follows. The MMPs were activated with either trypsin or APMA (4-aminophenylmercuric acetate, Sigma Chemical, St. Louis, Mo.). The assayed hydroxamate samples were, incubated in Microfluorrm White Plates (Dynatech, Chantilly, VA) and analyzed on a Perkin Elmer L550 plate reader (Norwalk, Conn.). The excitation wavelength was 328 nm, and the emission wavelength—415 nm. All samples (assayed hydroxamates and controls) were incubated in separate plates at room temperature in the presence of 4 μM of MMP substrate (I). As stated in the previous paragraph, samples containing varying concentrations of the same assayed hydroxamate were prepared. Inhibition was measured as a reduction in fluorescent intensity as a function of MMP inhibitor concentration.

Human recombinant MMP-13 = target: T2, Human recombinant MMP-13 (Homo sapiens, UniProt P45452); assay: as above; format: biochemical
T2 construct: made in house; host or cells: baculovirus / insect cells
Method: as §1, §2
The expressed proenzyme was first purified over a heparin agarose column, and then over a chelating zinc chloride column. The proenzyme was then activated by APMA for use in the assay. Further details on baculovirus expression systems may be found in, for example, Luckow et al., J. Virol., 67, 4566-79 (1993). See also, O'Reilly et al, Baculovirus Expression Vectors: A Laboratory Manual (W. H. Freeman and Co., New York, N.Y., 1992). See also, King et al., The Baculovirus Expression System: A Laboratory Guide (Chapman & Hall, London, England, 1992).
as §3, §4, §5, §6, §7, §8

[1] = substrate (I) 4 μM, room temperature, values not in parenthesis

Compound | IC50 (Human recombinant MMP-2; [1]) | IC50 (Human recombinant MMP-13; [1]) | IC50 (Human recombinant MMP-2; value outside parenthesis) | IC50 (Human recombinant MMP-13; value outside parenthesis) | IC50 (Human recombinant MMP-13; value outside parentheses (Ki in parenthesis))
COc1ccc(C(=O)NCCCOc2ccc(S(=O)(=O)C3(C(=O)NO)CCOCC3)cc2)cc1 [Example 17, tetrahydro-N-hydroxy-4-[[4-[3-[(4-methoxybenzoyl)amino]propoxy]phenyl]sulfonyl]-2H-pyran-4-carboxamide] | 550 nM | 1.6 nM | – | – | –
O=C(NO)C1(S(=O)(=O)c2ccc(OCCCc3ccc4ccccc4c3)cc2)CCOCC1 [Example 36] | 95 nM | 2.4 nM | – | – | –
CC(C)c1cccc(CCCOc2ccc(S(=O)(=O)C3(C(=O)NO)CCOCC3)cc2)c1 [Example 94] | – | – | 17.8 nM | 3.7 nM | –
CC(C)CCc1cccc(CCCOc2ccc(S(=O)(=O)C3(C(=O)NO)CCOCC3)cc2)c1 [Example 96] | – | – | 39.1 nM | 15.3 nM | –
COCCN1CCC(C(=O)NO)(S(=O)(=O)c2ccc(OCCCc3nc(-c4ccc(CCC(C)C)cc4C)no3)cc2)CC1 [Example 100] | – | – | 1690 nM | 153 nM | –
O=C(NCCCOc1ccc(S(=O)(=O)C2(C(=O)NO)CCOCC2)cc1)c1cc2ccccc2o1 [Example 101] | – | – | 18.2 nM | 0.2 nM | –
COCCN1CCC(C(=O)NO)(S(=O)(=O)c2ccc(OCCCn3nnc(-c4ccc(S(C)(=O)=O)cc4)n3)cc2)CC1 [Example 104] | – | – | 44.2 nM | 0.8 nM | –
O=C(NO)C1(S(=O)(=O)c2ccc(OCCCc3csc(-c4ccccc4)n3)cc2)CCOCC1 [Example 107] | – | – | 34 nM | 5.5 nM | –
COCCN1CCC(C(=O)NO)(S(=O)(=O)c2ccc(OCCCN3C(=O)[C@@H](C)N(c4ccccc4)C3=O)cc2)CC1 [Example 108] | – | – | 434 nM | 20 nM | –
NC(=O)c1cccc(-c2noc(CCCOc3ccc(S(=O)(=O)C4(C(=O)NO)CCN(C5CC5)CC4)cc3)n2)c1 [Example 131] | – | – | 108 nM | 4.5 nM | –
O=C(NO)C1(S(=O)(=O)c2ccc(OCc3nc(-c4ccc(OC(F)(F)F)cc4)no3)cc2)CCOCC1 [Example 132] | – | – | 61.7 nM | 3.7 nM | –
O=C1CN(c2ccc(OC(F)(F)F)cc2)C(=O)N1CCCOc1ccc(S(=O)(=O)C2(C(=O)NO)CCN(C3CC3)CC2)cc1 [Example 133] | – | – | 84.4 nM | 4.3 nM | –
C[C@@H]1C(=O)N(CCCOc2ccc(S(=O)(=O)C3(C(=O)NO)CCOCC3)cc2)C(=O)N1c1ccc(OC(F)(F)F)cc1 [Example 136] | – | – | 229 nM | 4.4 nM | –
COCCN1CCC(C(=O)NO)(S(=O)(=O)c2ccc(OCCCn3nnc(-c4cc(F)ccc4C)n3)cc2)CC1 [Example 141] | – | – | 32.5 nM | 3.6 nM | –
COCCN1CCC(C(=O)NO)(S(=O)(=O)c2ccc(OCCCn3nnc(-c4cccs4)n3)cc2)CC1 [Example 143] | – | – | 4.9 nM | 1.4 nM | –
COCCN1CCC(C(=O)NO)(S(=O)(=O)c2ccc(OCCCn3nnc(-c4ccc5c(c4)OCO5)n3)cc2)CC1 [Example 146] | – | – | 11.1 nM | 0.4 nM | –
COCCN1CCC(C(=O)NO)(S(=O)(=O)c2ccc(OCCCn3nnc(-c4ccccc4C)n3)cc2)CC1 [Example 151] | – | – | 38.4 nM | 2.6 nM | –
O=C(NO)C1(S(=O)(=O)c2ccc(OCCCc3cccc(-c4ccccn4)c3)cc2)CCOCC1 [Example 153] | – | – | 192 nM | 7.6 nM | –
CCOc1ccc(-c2nnn(CCCOc3ccc(S(=O)(=O)C4(C(=O)NO)CCN(CCOC)CC4)cc3)n2)cc1 [Example 156] | – | – | 32.1 nM | 1 nM | –

Compound | IC50 (Human recombinant MMP-2; [1]) | IC50 (Human recombinant MMP-13; [1]) | IC50 (Human recombinant MMP-2; value outside parenthesis) | IC50 (Human recombinant MMP-13; value outside parenthesis) | IC50 (Human recombinant MMP-13; value outside parentheses (Ki in parenthesis))
O=C(NO)C1(S(=O)(=O)c2ccc(OCCCc3cccc(-c4cc(F)cc(F)c4)c3)cc2)CCOCC1 [Example 159] | – | – | 1370 nM | 24.4 nM | –
COc1ccc(C(=O)C(C#N)CCOc2ccc(S(=O)(=O)C3(C(=O)NO)CCOCC3)cc2)cc1 (stereo not drawn) [Example 176] | – | – | 109 nM | 7.8 nM | –
C[C@H]1C(=O)N(CCCOc2ccc(S(=O)(=O)C3(C(=O)NO)CCOCC3)cc2)C(=O)N1c1ccccc1 [Example 177] | – | – | 333 nM | 17 nM | –
CC(C)Cc1ccc(-c2nnc(CCCOc3ccc(S(=O)(=O)C4(C(=O)NO)CCOCC4)cc3)o2)cc1 [Example 179] | – | – | 247 nM | 1.1 nM | –
COCCN1CCC(C(=O)NO)(S(=O)(=O)c2ccc(OCCCn3nnc(-c4ccccc4OC)n3)cc2)CC1 [Example 180] | – | – | 443 nM | 17 nM | –
CC(C)c1ccc(N2CCN(CCCOc3ccc(S(=O)(=O)C4(C(=O)NO)CCOCC4)cc3)C2=O)cc1 [Example 186] | – | – | 610 nM | 13.5 nM | –
CCCCc1ccc(N2CCN(CCCOc3ccc(S(=O)(=O)C4(C(=O)NO)CCOCC4)cc3)C2=O)cc1 [Example 192] | – | – | 1260 nM | 15.4 nM | –
O=C1N(CCCOc2ccc(S(=O)(=O)C3(C(=O)NO)CCOCC3)cc2)CCN1c1ccccc1 [Example 196] | – | – | 32.2 nM | 11.4 nM | –
COCCN1CCC(C(=O)NO)(S(=O)(=O)c2ccc(OCCCn3nc(C(F)(F)F)cc3-c3ccc(OC)cc3)cc2)CC1 [Example 198] | – | – | 4530 nM | 835 nM | –
COCCN1CCC(C(=O)NO)(S(=O)(=O)c2ccc(OCCCn3ncc(-c4ccc(OC)cc4)c3C(F)(F)F)cc2)CC1 [Example 202] | – | – | 1600 nM | 41.9 nM | –
COc1ccc(C(=O)N(C)CCCOc2ccc(S(=O)(=O)C3(C(=O)NO)CCOCC3)cc2)cc1 [Example 205] | – | – | 4780 nM | 17.6 nM | –
O=C(NO)C1(S(=O)(=O)c2ccc(OCCCc3nc(-c4cc(C(F)(F)F)cc(C(F)(F)F)c4)no3)cc2)CCOCC1 [Example 216] | – | – | 1950 nM | 51.2 nM | –
CC(=O)NC(C)(C)CCOc1ccc(S(=O)(=O)C2(C(=O)NO)CCN(C3CC3)CC2)cc1 [Example 221] | – | – | 8800 nM | 244 nM | –
COCCN1CCC(C(=O)NO)(S(=O)(=O)c2ccc(OCCCn3cc(-c4ccc(F)cc4)cn3)cc2)CC1 [Example 222] | – | – | 138 nM | 13.3 nM | –
COCCN1CCC(C(=O)NO)(S(=O)(=O)c2ccc(OCCCn3ccc(-c4ccc(OC)cc4)n3)cc2)CC1 [Example 223] | – | – | 69.7 nM | 11.9 nM | –
COc1ccc(C(=O)NC(C)(C)CCOc2ccc(S(=O)(=O)C3(C(=O)NO)CCNCC3)cc2)cc1 [Example 225] | – | – | 2330 nM | 17.8 nM | –
CC(C)c1ccc(NC(=O)CCCOc2ccc(S(=O)(=O)C3(C(=O)NO)CCOCC3)cc2)cc1 [Example 227] | – | – | 2.7 nM | 0.2 nM | –
COCCN1CCC(C(=O)NO)(S(=O)(=O)c2ccc(OCCCn3cc(-c4cccc(OC)c4)cn3)cc2)CC1 [Example 235] | – | – | 422 nM | 26 nM | –
CS(=O)(=O)c1ccccc1S(=O)(=O)N1CC(Oc2ccc(S(=O)(=O)C3(C(=O)NO)CCOCC3)cc2)C1 [Example 483] | – | – | – | – | 29 nM
